From patent publication US9249127B2 (Orion Corporation, priority 2012, dated 2016)
Structures can show the parent of a compound that is named as a salt. Where two headings read alike, the source gives them in different places.

Biological target: T1, alpha2A receptor (Homo sapiens, UniProt P08913)
T1 sequence (P08913 1-465): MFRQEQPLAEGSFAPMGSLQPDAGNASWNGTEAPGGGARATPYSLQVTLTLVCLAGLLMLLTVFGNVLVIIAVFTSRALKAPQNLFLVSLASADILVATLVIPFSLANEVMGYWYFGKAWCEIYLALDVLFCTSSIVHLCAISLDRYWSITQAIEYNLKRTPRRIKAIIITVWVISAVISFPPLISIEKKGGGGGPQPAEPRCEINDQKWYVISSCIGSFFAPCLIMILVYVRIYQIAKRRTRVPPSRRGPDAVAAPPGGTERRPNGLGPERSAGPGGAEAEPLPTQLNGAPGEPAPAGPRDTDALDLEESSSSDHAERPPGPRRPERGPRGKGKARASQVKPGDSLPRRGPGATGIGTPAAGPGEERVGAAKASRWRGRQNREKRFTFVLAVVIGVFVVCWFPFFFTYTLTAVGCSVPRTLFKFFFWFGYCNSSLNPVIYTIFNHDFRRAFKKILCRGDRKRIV
Assay: Alpha2A agonistic activity in vitro
Format: cell-based

[1] = in vitro, read-out: Alpha2A Agonism pEC50 (converted)
[2] = Alpha2A Agonism pEC50, in vitro

Row | Compound | Alpha2A Intrinsic Activity (in vitro) | EC50 [1] | EC50 [2] | Alpha2A Intrinsic Activity (in vitro, hydrochloride)
1 | c1cc(-c2ccoc2)c2c(c1)C(C1=NCCN1)OCC2 (stereo not drawn) [Example 54, 2-(5-(Furan-3-yl)isochroman-1-yl)-4,5-dihydro-1H-imidazole] | 0.16 | 1000 nM | – | –
2 | Oc1cccc2c1CCOC2C1=NCCN1 (stereo not drawn) [Example 9, 1-(4,5-Dihydro-1H-imidazol-2-yl)isochroman-5-ol] | 0.73 | 200 nM | – | –
3 | Cc1cccc2c1CCOC2(C)C1=NCCN1 (stereo not drawn) [Example 3, 2-(1,5-Dimethylisochroman-1-yl)-4,5-dihydro-1H-imidazole] | 0.95 | – | 63.1 nM | –
4 | Cc1cccc2c1CC(C)OC2C1=NCCN1 (stereo not drawn) [Example 25, 2-(3,5-Dimethylisochroman-1-yl)-4,5-dihydro-1H-imidazole] | 0.82 | – | 3.16 nM | –
5 | COc1cc(C)c2c(c1)C(C1=NCCN1)OC(C)C2 (stereo not drawn) [Example 85, 2-(7-Methoxy-3,5-dimethylisochroman-1-yl)-4,5-dihydro-1H-imidazole] | 0.22 | 1000 nM | – | –
6 | CC[C@@H]1Cc2c(C)cccc2C(C2=NCCN2)O1 (stereo partly drawn) [Example 48, 2-((3R)-3-ethyl-5-methylisochroman-1-yl)-4,5-dihydro-1H-imidazole] | 0.58 | – | 25.1 nM | –
7 | Cc1cccc2c1CCSC2C1=NCCN1 (stereo not drawn) [Example 64, 2-(5-Methylisothiochroman-1-yl)-4,5-dihydro-1H-imidazole] | 0.59 | – | 79.4 nM | –
8 | CC1(C2=NCCN2)OCCc2c(C(O)C(C)(C)C)cccc21 (single isomer, unassigned) [Example 13, 1-(1-(4,5-Dihydro-1H-imidazol-2-yl)-1-methylisochroman-5-yl)-2,2-dimethylpropan-1-ol] | 0.66 | 1260 nM | – | –
9 | Cc1cccc2c1CC(CC(F)F)OC2C1=NCCN1 (single isomer, unassigned) [Example 89, 2-((3-(2,2-difluoroethyl)-5-methylisochroman-1-yl)-4,5-dihydro-1H-imidazole hydrochloride] | – | – | 39.8 nM | 0.33
10 | Cc1cc(Br)cc2c1CCOC2C1=NCCN1 (stereo not drawn) [Example 60, 2-(7-Bromo-5-methylisochroman-1-yl)-4,5-dihydro-1H-imidazole] | 0.66 | 126 nM | – | –
11 | CC1(C2=NCCN2)OCCc2c(C3CC3)cccc21 (stereo not drawn) [Example 24] | 0.20 | 794 nM | – | –
12 | CC1Cc2c(Br)cccc2C(C2=NCCN2)S1 (stereo not drawn) [Example 63, 2-(5-Bromo-3-methylisothiochroman-1-yl)-4,5-dihydro-1H-imidazole] | 0.85 | 3160 nM | – | –
13 | Cc1cccc2c1CC(CCF)OC2C1=NCCN1 (stereo not drawn) [Example 81, 2-(3-(2-Fluoroethyl)-5-methylisochroman-1-yl)-4,5-dihydro-1H-imidazole] | 0.54 | 158 nM | – | –
14 | CC(C)c1cccc2c1CCOC2C1=NCCN1 (stereo not drawn) [Example 41, 2-(5-Isopropylisochroman-1-yl)-4,5-dihydro-1H-imidazole] | 0.27 | 251 nM | – | –
15 | CC#Cc1cccc2c1CCOC2C1=NCCN1 (stereo not drawn) [Example 55, 2-(5-(Prop-1-yn-1-yl)isochroman-1-yl)-4,5-dihydro-1H-imidazole] | 0.80 | 126 nM | – | –
16 | CC1Cc2c(Br)cccc2C(C)(C2=NCCN2)O1 (stereo not drawn) [Example 31, 2-(5-Bromo-1,3-dimethylisochroman-1-yl)-4,5-dihydro-1H-imidazole] | 0.43 | 1260 nM | – | –
17 | CCC1Cc2c(Br)cccc2C(C2=NCCN2)O1 (single isomer, unassigned) [Example 94, 2-(5-bromo-3-ethylisochroman-1-yl)-4,5-dihydro-1H-imidazole] | 0.55 | – | 25.1 nM | –
18 | CC[C@@H]1Cc2c(Cl)cccc2C(C2=NCCN2)O1 (stereo partly drawn) [Example 12, 2-((3R)-5-chloro-3-ethylisochroman-1-yl)-4,5-dihydro-1H-imidazole] | 0.94 | 1580 nM | – | –
19 | Cc1cccc2c1CC(CC(F)F)OC2C1=NCCN1 (stereo not drawn) [Example 84, 2-(3-(2,2-Difluoroethyl)-5-methylisochroman-1-yl)-4,5-dihydro-1H-imidazole] | 0.45 | – | 100 nM | –
20 | C[C@@H]1Cc2c(cccc2C(F)(F)F)C(C2=NCCN2)O1 (stereo partly drawn) [Example 19, 2-((3R)-3-methyl-5-(trifluoromethyl)isochroman-1-yl)-4,5-dihydro-1H-imidazole] | 0.81 | – | 5.01 nM | –
21 | Clc1cccc2c1CCOC2C1=NCCN1 (stereo not drawn) [Example 4, 2-(5-Chloroisochroman-1-yl)-4,5-dihydro-1H-imidazole] | 0.85 | – | 7.94 nM | –

Row | Compound | Alpha2A Intrinsic Activity (in vitro) | EC50 [1] | EC50 [2] | Alpha2A Intrinsic Activity (in vitro, hydrochloride)
22 | CC1(C2=NCCN2)OCCc2c(Br)cccc21 (stereo not drawn) [Example 11, 2-(5-Bromo-1-methylisochroman-1-yl)-4,5-dihydro-1H-imidazole] | 0.83 | – | 100 nM | –
23 | C=CCc1cccc2c1CCOC2C1=NCCN1 (stereo not drawn) [Example 6, 2-(5-Allylisochroman-1-yl)-4,5-dihydro-1H-imidazole] | 0.53 | – | 39.8 nM | –
24 | CC(O)c1cccc2c1CCOC2C1=NCCN1 (stereo not drawn) [Example 58, 1-(1-(4,5-Dihydro-1H-imidazol-2-yl)isochroman-5-yl)ethanol] | 0.47 | – | – | –
25 | CCC1Cc2c(OC)cccc2C(C2=NCCN2)O1 (stereo not drawn) [Example 46, 2-(3-Ethyl-5-methoxyisochroman-1-yl)-4,5-dihydro-1H-imidazole] | 0.45 | – | 79.4 nM | –
26 | Brc1cccc2c1CCOC2C1=NCCN1 (stereo not drawn) [Example 2, 2-(5-Bromoisochroman-1-yl)-4,5-dihydro-1H-imidazole] | 0.85 | – | 15.8 nM | –
27 | COc1cc(C)c2c(c1)C(C1=NCCN1)OCC2 (stereo not drawn) [Example 61, 2-(7-Methoxy-5-methylisochroman-1-yl)-4,5-dihydro-1H-imidazole] | 0.81 | – | – | –
28 | Cc1cccc2c1CCOC2(C)C1=NCCN1 (single isomer, unassigned) [Example 21, 2-(1,5-Dimethylisochroman-1-yl)-4,5-dihydro-1H-imidazole] | 0.73 | – | 50.1 nM | –
29 | FC(F)Oc1cccc2c1CCOC2C1=NCCN1 (stereo not drawn) [Example 90, 2-(5-(Difluoromethoxy)isochroman-1-yl)-4,5-dihydro-1H-imidazole] | 0.66 | – | 39.8 nM | –
30 | c1cc2c3c(c1)C(C1=NCCN1)OCC3CCCC2 (stereo not drawn) [Example 57, 2-(3,7,8,9,10,10a-Hexahydro-1H-cyclohepta[de]isochromen-3-yl)-4,5-dihydro-1H-imidazole] | 0.11 | 2000 nM | – | –
31 | FC(F)c1cccc2c1CCOC2C1=NCCN1 (stereo not drawn) [Example 99, 2-(5-(Difluoromethyl)isochroman-1-yl)-4,5-dihydro-1H-imidazole] | 0.73 | – | 12.6 nM | –
32 | Clc1cccc2c1CCOC2C1=NCCN1 (single isomer, unassigned) [Example 92, 2-(5-chloroisochroman-1-yl)-4,5-dihydro-1H-imidazole] | 0.78 | – | 31.6 nM | –
33 | CCC1Cc2c(Br)cccc2C(C2=NCCN2)O1 (stereo not drawn) [Example 43, 2-(5-Bromo-3-ethylisochroman-1-yl)-4,5-dihydro-1H-imidazole] | 0.58 | – | 50.1 nM | –
34 | COCC1Cc2c(C)cccc2C(C2=NCCN2)O1 (stereo not drawn) [Example 74, 2-(5-Methyl-3-(methoxymethyl)isochroman-1-yl)-4,5-dihydro-1H-imidazole] | 0.35 | 794 nM | – | –
35 | Ic1cccc2c1CCOC2C1=NCCN1 (stereo not drawn) [Example 18, 2-(5-Iodoisochroman-1-yl)-4,5-dihydro-1H-imidazole] | 0.81 | – | 2 nM | –
36 | COc1cccc2c1C[C@@H](C)OC2C1=NCCN1 (stereo partly drawn) [Example 44, 2-((3R)-5-methoxy-3-methylisochroman-1-yl)-4,5-dihydro-1H-imidazole] | 0.83 | – | 7.94 nM | –
37 | CCC1Cc2c(C)cccc2C(C2=NCCN2)O1 (stereo not drawn) [Example 27, 2-(3-Ethyl-5-methylisochroman-1-yl)-4,5-dihydro-1H-imidazole] | 0.69 | – | 25.1 nM | –
38 | COc1cccc2c1CCOC2(C)C1=NCCN1 (stereo not drawn) [Example 69, 2-(5-Methoxy-1-methylisochroman-1-yl)-4,5-dihydro-1H-imidazole] | 0.19 | – | – | –
39 | Cc1cccc2c1CCSC2(C)C1=NCCN1 (stereo not drawn) [Example 78, 2-(1,5-Dimethylisothiochroman-1-yl)-4,5-dihydro-1H-imidazole] | 0.62 | 501 nM | – | –
40 | Brc1cccc2c1CCOC2C1=NCCN1 (single isomer, unassigned) [Example 101, 2-(5-bromoisochroman-1-yl)-4,5-dihydro-1H-imidazole] | 0.89 | – | 3.16 nM | –
41 | COc1cccc2c1C[C@H](C)OC2C1=NCCN1 (stereo partly drawn) [Example 53, 2-((3S)-5-methoxy-3-methylisochroman-1-yl)-4,5-dihydro-1H-imidazole] | 0.72 | 316 nM | – | –
42 | CC1(C2=NCCN2)OCCc2c(C(O)C(C)(C)C)cccc21 (single isomer, unassigned) [Example 14, 1-(1-(4,5-Dihydro-1H-imidazol-2-yl)-1-methylisochroman-5-yl)-2,2-dimethylpropan-1-ol] | 0.43 | 3160 nM | – | –
